Test results from paper PMC5000642 (International Journal of Molecular Sciences, 2016).
Where a SMILES comes first, the peptide text is derived from it. [ ]: non-standard residue; d: D form.

Assays:
[1] = molecular target: T1, proteinase-activated receptor 1 (PAR1) (Homo sapiens, UniProt P25116); experiment: cell-based; parameters: species or system HEK293; calcium mobilization assay in HEK293 cells stably expressing the human GPCR, agonist response
T1 construct: gene F2R; stably expressed in HEK293
T1 sequence (P25116 1-425): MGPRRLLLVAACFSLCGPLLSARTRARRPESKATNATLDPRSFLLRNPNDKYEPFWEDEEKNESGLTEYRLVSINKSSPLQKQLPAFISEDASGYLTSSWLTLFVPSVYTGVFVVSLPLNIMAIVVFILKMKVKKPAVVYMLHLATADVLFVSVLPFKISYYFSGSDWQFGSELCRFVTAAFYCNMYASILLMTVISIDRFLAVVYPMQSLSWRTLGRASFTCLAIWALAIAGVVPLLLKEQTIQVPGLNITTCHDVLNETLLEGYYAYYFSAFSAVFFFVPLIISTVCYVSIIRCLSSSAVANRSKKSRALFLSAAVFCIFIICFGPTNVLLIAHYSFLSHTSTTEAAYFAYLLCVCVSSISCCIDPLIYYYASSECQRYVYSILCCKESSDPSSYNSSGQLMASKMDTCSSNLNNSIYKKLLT
Procedure: To acquire the antagonist dose response, we tested the inhibitory effects of Sal A at different concentrations in the HEK293/ETAR cell line with 20 nM ET-1 stimulating. […] To omit a potential false positive, the cytotoxicity was tested in the HEK293/ETAR cell line by ATP CellTiter-Glo assay. In brief, Sal A was incubated in HEK293/ETAR cells for 30 min before luminescence signal measurement. […] The selectivity of Sal A was further assessed by calcium influx assay on 5 GPCRs. […] All cell lines were developed by standard procedures. Sal A was tested at a final concentration of 10 µM when cells were challenged with their selective agonists for antagonist identification. The selective antagonists of specific cell lines were used as positive control (Table S1). The HEK293 cell line was set up as the naïve group, and cells were challenged with 10 µM ATP as an agonist. […] The Gαq pathway is involved in ETAR activation, which increases intracellular Ca^2+. Based on this characteristic, a cell-based calcium mobilization assay has been used to study the function of GPCR and Ca^2+-permeable ion channels by measuring the changes of intracellular free Ca^2+ levels. In our previous study, recombinant ETAR in HEK293 cells was developed according to standard procedures. The utility of the cell line was validated using ETAR agonist (ET-1) and antagonist (BQ-123). […]

[2] = molecular target: T2, endothelin A receptor (ETAR) (Homo sapiens, UniProt P25101); experiment: Calcium mobilization antagonist assay in HEK293/ETAR cells evoked by […] ET-1 (cell line validation); type: cell-based
T2 construct: gene EDNRA
T2 sequence (P25101 21-427): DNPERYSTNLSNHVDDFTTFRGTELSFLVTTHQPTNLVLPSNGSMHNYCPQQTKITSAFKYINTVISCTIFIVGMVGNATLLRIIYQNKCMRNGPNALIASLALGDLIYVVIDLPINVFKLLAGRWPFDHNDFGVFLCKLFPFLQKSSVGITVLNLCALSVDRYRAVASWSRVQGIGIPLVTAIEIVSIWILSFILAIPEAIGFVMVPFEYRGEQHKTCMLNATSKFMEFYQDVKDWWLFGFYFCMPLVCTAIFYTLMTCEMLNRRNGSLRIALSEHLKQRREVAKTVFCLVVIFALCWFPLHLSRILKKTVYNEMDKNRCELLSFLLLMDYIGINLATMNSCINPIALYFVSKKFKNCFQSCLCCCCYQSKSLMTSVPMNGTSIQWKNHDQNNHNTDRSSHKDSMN

[3] = molecular target: T2, endothelin A receptor (ETAR); experiment: Calcium mobilization (Fluo-4) antagonist assay in HEK293/ETAR cells evoked by […] ET-1; selective over ETB, A1, AT1 and PAR1 cell lines; type: cell-based

CC(C)C[C@H](NC(=O)[C@H](CC(C)C)NC(=O)[C@H](Cc1ccccc1)NC(=O)[C@@H](N)CO)C(=O)N[C@@H](CCCN=C(N)N)C(=O)N[C@@H](CC(N)=O)C(=O)O [TRAP-6]
EC50 [1]: 890 nM

CC(C)C[C@@H]1NC(=O)[C@@H](C(C)C)NC(=O)[C@@H]2CCCN2C(=O)[C@@H](CC(=O)O)NC(=O)[C@@H](Cc2c[nH]c3ccccc23)NC1=O [BQ-123] (cyclo(L[dW][dD]P[dV]))
IC50 [2]: 0.1 nM

O=C(/C=C/c1ccc(O)c(O)c1/C=C/c1ccc(O)c(O)c1)O[C@H](Cc1ccc(O)c(O)c1)C(=O)O [Sal A, Salvianolic acid A]
IC50 [3]: 5700 nM
